The source made the active and inactive calls.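 The calls were made as follows: active = compounds giving half or more protection of infected cells from virus-caused growth loss, again on retest; inactive = the rest.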 Where a SMILES comes first, the peptide text is derived from it. Bridges are numbered along the chain shown (N, C = ends). [ ]: non-standard residue; d: D form. The star is where a group is joined. Cbz = O=C(OCc1ccccc1)*; Dab = NCC[CH](N)C(=O)O; Bn = c1ccc(C*)cc1
Tested on: CEM cells HIV-1 protection, formazan growth assay
Experiment: NCI AIDS Antiviral Assay
Details: for IC50: measured here: growth of uninfected CEM cells
Summary of the method: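 Category rules: moderately active means at least 50% protection on retest, and confirmed active means 100% protection reproducibly. The underlying data came from a formazan growth assay in HIV-1-infected CEM cells.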

SMILES | EC50 [µM] | IC50 [µM] | outcome
N#CC(C#N)=C(N)/C(C#N)=C/c1ccc(O)c(O)c1 | > 200 | 61.7 | –
[N-]=[N+]=Nc1c([N+](=O)[O-])c(=O)n(-c2ccccc2)c2ccccc12 | > 200 | 13.5 | –
N#CC(C#N)SCc1ccccc1 | – | – | inactive
Cc1cc(C)c(COC(=O)NS(=O)(=O)Nc2ccccc2)c(C)c1 | > 200 | 43.7 | –
CCOC(=O)[C@@H]1ON2O[C@@H](OC3CCCCC3c3ccccc3)C[C@H]3OC(=O)[C@@H]1C32 (stereo partly drawn) | > 200 | > 200 | –
N#CC(C(=O)CCC(=O)Nc1cccc(Cl)c1)c1ccccc1 (stereo not drawn) | > 759 | > 759 | –
CNC(=O)OCc1cc(C(=O)NCCCNCCCNC(=O)c2ccc([N+](=O)[O-])c(COC(=O)NC)c2)ccc1[N+](=O)[O-] | – | – | inactive
CN(/N=C/c1ccc(Cl)cc1)C1=NCCCCN1 | > 200 | 87.1 | –
O=C1OC(c2ccc3c(c2)OCO3)Sc2ccccc21 (stereo not drawn) | > 18.2 | > 18.2 | –
CCSCCCCCCCCCCC(=O)O | > 200 | 63.1 | –
Cc1ccc(S(=O)(=O)Nn2c(O)c(C#N)c(-c3ccc([N+](=O)[O-])cc3)c(C#N)c2=O)cc1 | > 200 | > 200 | –
COc1ccc(Nc2nc3ccccc3nc2C(=O)O)cc1OC | > 200 | 85.1 | –
Cc1sc2[nH]c(=O)oc(=O)c2c1C | > 200 | 30.2 | –
Cc1cc(N(CCC#N)CCC#N)ccc1N=Nc1ccc(S(N)(=O)=O)cc1 | > 170 | > 170 | –
CCCCCCCCCC=C(c1cc(Br)c(O)c(C(=O)O)c1)c1cc(Br)c(O)c(C(=O)O)c1 | 141 | 191 | –
c1ccc(-c2sc(-c3ccccc3)c3c2[C@H](c2ccccc2)S[C@H]3c2ccccc2)cc1 | – | – | inactive
C=C1C(=O)O[C@H]2C1C(OC(=O)/C(C)=C/C)C(OC(C)=O)[C@@](C)(O)C1C2C(C)=C[C@H]1OC(C)=O (stereo partly drawn) | > 141 | 6.17 | –
c1ccc(Nc2nnc(CSc3nc(-c4ccccc4)c(-c4ccccc4)[nH]3)s2)cc1 | > 81.3 | 72.4 | –
Cc1ccc(C(=O)c2ccccc2C(=O)O)cc1C(=O)O | > 200 | > 200 | –
COc1cc2c(c(OC)c1OC)C(=O)[C@@H](O)[C@H]2NC(N)=O | > 200 | > 200 | –
CS(=O)(=O)c1ccc(-c2cc(-c3ccc(S(C)(=O)=O)cc3)[n+](-c3cc(-c4ccccc4)c([O-])c(-c4ccccc4)c3)c(-c3ccc(S(C)(=O)=O)cc3)c2)cc1 | > 692 | > 692 | –

SMILES | EC50 [µM] | IC50 [µM] | outcome
O=C1CN(CCO)CC(=O)N2Cc3ccccc3CN12 | – | – | inactive
O=C(CCc1nnc2s/c(=C\c3ccc(Cl)c(Cl)c3)c(=O)n12)Nc1ccc(Cl)c(Cl)c1 | > 13.2 | > 13.2 | –
c1ccc(N2N=NC3C4CC(C5CCCC54)C32)cc1 (stereo not drawn) | > 200 | > 100 | –
NNC(=S)N/N=C/C(Cl)=C(\Cl)C(=O)O | > 28.2 | > 28.2 | –
Cn1nc(-c2ccccc2)c2c(/C=C/c3ccc(Cl)cc3)onc2c1=O | > 14.5 | > 14.5 | –
O=c1[nH]nc(Cc2ccccc2)n1CCO | – | – | inactive
CC(C)NC(=O)CCN(C(=O)O)S(=O)(=O)c1ccc(NC(=O)c2ccccc2)cc1 | > 575 | > 575 | –
CCCc1c(-c2ccc(OC)cc2)c(=O)oc2cc(O)ccc12 | > 200 | 53.7 | –
CSc1c(C(=O)Nc2ccccc2)c(N)n(N)c(=O)c1C#N | 55 | > 200 | –
NC1=NN(c2ccccc2)C(=O)C1/C(=N\NC(=O)c1cc2ccccc2cc1O)C(=O)Nc1ccc(Cl)cc1 (stereo not drawn) | > 6.92 | > 6.92 | –
CC(C)=C=CC(C)(C)NS(=O)(=O)NC(C)(C)C=C=C(C)C | > 200 | 105 | –
CC(C)CC1NC(=O)C(Cc2ccccc2)NC(=O)C(Cc2ccccc2)NC(=O)C(NC(=O)C(Cc2ccc(OCc3ccccc3)cc2)NC(=O)OCc2ccccc2)CCNC1=O (stereo not drawn) (Cbz-Y(Bn)[Dab]FFL; lactam 2-C; configuration not given here) | > 100 | > 100 | –
[O-][N+](=Nc1ccccc1CO)c1ccccc1CO | 110 | > 200 | –
CC1=C(C(=O)Nc2ccccc2)C(c2ccc(C(C)C)cc2)C(C(=O)Nc2ccccc2)=C(C)N1 | – | – | inactive
COc1ccc2c(c1)-c1nc(=S)n(CCCN(C)C)c3ccc([N+](=O)[O-])c(c13)N2 | > 2 | 0.389 | –
C[N+](C)(C)CC(=O)N/N=C(/Cc1nc2c3c(ccc2[nH]c1=O)C(=O)c1ccccc1C3=O)C(=O)Nc1ccc(Cl)c(Cl)c1 | > 20.9 | > 20.9 | –
CCOC(=O)c1cc(-c2ccc(-c3cc(C(=O)OCC)c(C#N)c(N)c3C#N)cc2)c(C#N)c(N)c1C#N | > 26.9 | > 26.9 | –
NS(=O)(=O)c1cc[c]([Sb](=[O])([OH])[OH])cc1 | > 200 | > 200 | –
C[C@@H]1C[C@H]2[C@@H]3CCC4=CC(=O)C=C[C@]4(C)[C@@]3(F)[C@@H](O)C[C@]2(C)C1=O | – | – | inactive
N#Cc1ccc(N(O)C(=O)c2ccccc2)cc1 | > 200 | 46.8 | –
C=CCOc1ccc(C2(c3ccc(OCC=C)cc3)C(=O)Nc3ccccc32)cc1 | > 200 | 44.7 | –

SMILES | EC50 [µM] | IC50 [µM] | outcome
CC(C(=O)c1cc(O)c(O)cc1C(O)(C(F)(F)F)C(F)(F)F)C(O)(C(F)(F)F)C(F)(F)F (stereo not drawn) | 70.8 | > 100 | –
c1cc(-c2ccc(-c3ccsc3)s2)cs1 | > 200 | > 200 | –
Nc1ncnc2c1ncn2C1OC2CSCC2(O)C1O (stereo not drawn) | > 200 | 138 | –
CC1Cn2c(=S)[nH]c3cccc(c32)NC1=O (stereo not drawn) | > 200 | > 200 | –
COc1ccc(N(CC(=O)O)S(=O)(=O)c2ccccc2)cc1 | – | – | inactive
Cc1nc2cc(N)c(Cl)cc2[nH]1 | > 200 | > 200 | –
O=C(O)C1C2c3ccccc3C(c3ccccc32)C1C(=O)O (stereo not drawn) | > 851 | > 851 | –
CC12CC(=O)Nc3ccccc3N1C(c1ccccc1)=NO2 (stereo not drawn) | > 200 | > 200 | –
Cc1cc(Cl)ccc1NC(=O)C(=O)C(C(=O)c1ccc2ccccc2c1)C1OC(=O)c2ccccc21 (stereo not drawn) | > 52.5 | 25.1 | –
CNS(=O)(=O)c1c(NC=O)ncn1C | > 1150 | > 1150 | –
Nc1ccn(C2OC(CO)C(F)C2F)c(=O)n1 (stereo not drawn) | > 501 | > 501 | –
OC(c1ccccc1)(c1ccccc1)C1CC1c1ccncc1 (stereo not drawn) | > 200 | 117 | –
Cc1ccc(S(=O)(=O)NC(CCC(=O)NN)C(=O)NN)cc1 (stereo not drawn) | > 200 | > 200 | –
CCOC(=O)/C=C/c1cccc(C#N)c1 | > 178 | 87.1 | –
C/C(=N/Nc1ccc([N+](=O)[O-])cc1[N+](=O)[O-])C(CC(C(=O)NCc1ccccc1)/C(C)=N\Nc1ccc([N+](=O)[O-])cc1[N+](=O)[O-])C(=O)NCc1ccccc1 (stereo not drawn) | > 6.92 | > 6.92 | –
CC(C)[Si](OC1=CCC[C@H]2NC(=O)[C@@H](Cc3ccccc3)[C@@]12C)(C(C)C)C(C)C | > 200 | 12 | –
CCOC(=O)NN(C(=O)OCC)C(=C(c1ccccc1)N1CCOCC1)N(NC(=O)OCC)C(=O)OCC | > 200 | > 200 | –
NNC(=O)CC(=O)Nc1cccc(Cl)c1 | > 200 | 120 | –
O=C(O)C1CCC(=O)N1S(=O)(=O)c1ccccc1 (stereo not drawn) | – | – | inactive
CC(=O)C(=Cc1ccc(-c2ccccc2)cc1)C(C)=O | > 19.5 | > 19.5 | –
CC(=O)OCC1C(C(C)OC(C)=O)CCC2C1CCC1(C)C(OC(C)=O)CCC21 (stereo not drawn) | > 20.4 | 16.6 | –

SMILES | EC50 [µM] | IC50 [µM] | outcome
CCc1nnc2sc3c(Cl)c4nn5c(CC)nnc5sc4c(Cl)c3nn12 | > 200 | 11.7 | –
Cc1cccc(N2C(=O)/C(=C/c3ccc(N(CCC#N)CCC#N)cc3C)N=C2c2cc([N+](=O)[O-])ccc2Cl)c1 | – | – | inactive
CC(C)[C@@H](C)[C@@]1(C)C[C@@H]1[C@@H](C)[C@H]1CC[C@@H]([C@@H]2CC=C3C[C@@H](O)CC[C@]3(C)C2=O)[C@]1(C)CCO | > 200 | 8.51 | –
C/C=C1\Oc2ccc(OC)cc2S1(=O)=O | 17 | 31.6 | –
COc1cc(CC2c3cc(OC)c(OC)cc3CCN2C)c(Oc2cc3c(cc2OC)-c2c(OC)c(OC)c(OC)c4c2C(C3)N(C)CC4)cc1OC (stereo not drawn) | – | – | inactive
CN[C@H]1CCc2cc(OC)c(OC)c(OC)c2-c2ccc(OC)c(=O)cc21 | – | – | inactive
COC1(c2cccs2)OC(=O)c2c([N+](=O)[O-])cccc21 (stereo not drawn) | – | – | inactive
O=C1c2sccc2-c2cccc3cccc1c23 | > 63.1 | 30.9 | –
Nc1ccc[nH]c1=O | > 234 | > 234 | –
CSC(=O)c1sc(SC)[n+](-c2ccccc2)c1O | > 200 | 10.2 | –
O=[N+]([O-])c1ccc(S(=O)(=O)N/N=C/c2ccco2)cc1 | > 316 | 166 | –
O=C1CCc2cc3c(cc21)CC1(Cc2cc4c(cc2C1)CCCC4)C3 | > 200 | 138 | –
CCOC(=O)/C(=C\c1cccc(C(F)(F)F)c1)P(=O)(OCC)OCC | > 95.5 | 5.01 | –
COc1ccc(-n2c(Cn3nnc(-c4cccnc4)n3)nn(C3OC(COC(=O)c4ccccc4)C(OC(=O)c4ccccc4)C3OC(=O)c3ccccc3)c2=S)cc1 (stereo not drawn) | > 100 | > 100 | –
CCCCCCN(CCCCCC)C1=CC(=O)C(=O)c2ccccc21 | > 95.5 | 16.6 | –
O=C1CN(C(=O)C2CCCN2C(=O)C2CCCN2)C(=O)CN1 (stereo not drawn) | > 200 | > 200 | –
CCN(CC)C(C)(O)CN (stereo not drawn) | > 200 | > 200 | –
Cc1cc(NS(=O)(=O)c2ccc(NC(NC(=O)OC(C)C)(C(F)(F)F)C(F)(F)F)cc2)nc(C)n1 | > 200 | > 200 | –
Cc1c(C(=O)CC(=O)C(=O)Nc2ccccc2C(F)(F)F)[n+](=O)c2ccccc2n1[O-] | > 4.57 | > 4.57 | –
NC(CSS(=O)(=O)O)=NCc1cccs1 | > 200 | > 100 | –
